Values of other authors in PMC3923778 (PLoS Currents, 2014).

Test system: HD mouse models
Set-up: method as in PMID 19281846, PMID 20923867, PMID 19291221, PMID 17184995
Details: ref [5], [7], [14], [15]; cited from earlier work

Row | Compound | disease progression in HD mouse models
1 | COc1ccc(C2CNC(=O)C2)cc1OC1CCCC1 (centres unmarked) [rolipram] | significantly delay disease progression
2 | TP-10 | significantly delay disease progression
